These results are taken from ChEMBL document CHEMBL3132754 (Medchemcomm, 2013).

SMILES strings stand for the structures. pIC50: −log10 of the molar value.

Data set [1] in a line: Metabolic stability in human liver microsomes assessed as compound remaining at 200 uM measured after 1 hr by LC/MS/MS method. The class given is ADME. As to conditions: read-out: Stability. A general note: Microsomes from liver hold many membrane-bound enzymes, among them those of drug oxidation.
A short description of data set [2]: (§1) Stability in human plasma assessed as compound remaining at 5 uM after 1 hr by LC/MS/MS method. The class given is ADME, cell-free. As to conditions: read-out: Stability.
Data set [3] deals with Plasma. Described as §1. The class given is ADME, cell-free. To be noted: 1 h, 5 µM.
In data set [4] the test system is MV4-11. The data set can be described thus: […] histone methylation in human MV4-11 cells assessed as H3K79 methylation after 4 days by Western blot analysis. The class given is functional, cell-based. To be noted: MV4-11, 96 h. For orientation: A western blot detects proteins with antibodies after separation by electrophoresis.

Regarding `CC(C)N(CCCNC(=O)Nc1ccc(C(C)(C)C)cc1)C[C@H]1O[C@@H](n2cnc3c(N)ncnc32)[C@H](O)[C@@H]1O`, in data set [1], the remaining at 1 h, 200 µM came out at 50%. The remaining at 1 h, 5 µM in data set [2] stood at 90%.
Consider `CC(C)N(CCCNC(=O)Nc1ccc(C(C)(C)C)cc1)CC1=C[C@@H](n2cnc3c(N)ncnc32)[C@H](O)[C@@H]1O`, for which the remaining at 1 h, 200 µM in data set [1] is 50%. Besides, in data set [3], the Stability entry is given as “Stable”. In addition, the pIC50 (commonly the negative decadic logarithm of the IC50, by convention in mol/L) in data set [4] was 6.70.
`CC(C)N(CCCNC(=O)Nc1ccc(C(C)(C)C)cc1)C[C@H]1C[C@@H](n2cnc3c(N)ncnc32)[C@H](O)[C@@H]1O`: in data set [3], the Stability entry is “Stable”.
